The record followed here is PMC9599461, “Stereoselectivity in the Membrane Transport of Phenylethylamine Derivatives by Human Monoamine Transporters and Organic Cation Transporters 1, 2, and 3” (Biomolecules, 2022).

The target in series [1] is NET (Homo sapiens, UniProt P23975). Put plainly: Stereoselective uptake into NET-overexpressing HEK293 cells.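 For all read-outs here: intracellular enantiomers quantified in cell lysates by chiral HPLC-MS/MS after a 2 min substrate incubation, with uptake normalized to total cellular protein.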 To be noted: for Vmax ± SEM / Km: HEK293 cells overexpressing human NET, racemic substrate, two minutes; for Vmax ± SEM: net uptake; for Km: read-out: Km ± SEM, net uptake minus empty vector control.
Chain of NET (P23975 whole entry): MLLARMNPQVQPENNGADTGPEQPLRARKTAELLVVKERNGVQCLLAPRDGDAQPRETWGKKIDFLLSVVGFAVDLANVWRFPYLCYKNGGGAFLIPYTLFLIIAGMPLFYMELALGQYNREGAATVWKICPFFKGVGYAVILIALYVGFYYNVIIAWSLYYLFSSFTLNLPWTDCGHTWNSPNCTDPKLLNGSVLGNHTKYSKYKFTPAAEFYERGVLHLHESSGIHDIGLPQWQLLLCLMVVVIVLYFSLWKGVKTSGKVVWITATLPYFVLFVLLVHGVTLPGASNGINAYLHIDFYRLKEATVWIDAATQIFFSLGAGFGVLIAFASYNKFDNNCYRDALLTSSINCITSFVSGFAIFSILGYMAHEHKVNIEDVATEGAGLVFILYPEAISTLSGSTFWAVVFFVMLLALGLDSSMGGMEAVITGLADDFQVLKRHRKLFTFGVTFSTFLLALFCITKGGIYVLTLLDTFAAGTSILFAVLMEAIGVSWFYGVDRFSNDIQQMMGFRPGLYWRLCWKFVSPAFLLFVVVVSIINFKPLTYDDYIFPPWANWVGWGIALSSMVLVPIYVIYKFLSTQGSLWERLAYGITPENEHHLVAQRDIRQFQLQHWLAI
Protocol: (§1) All transport experiments were carried out in HEK293 cells stably overexpressing human MATs or OCTs. […] All cells were regularly cultivated in DMEM supplemented with 10% (v/v) FCS, penicillin (100 U/mL) and streptomycin (100 μg/mL)and kept in culture for no longer than 30 passages.
(§2) For the uptake experiments, 300,000 cells were plated in poly-D-lysine precoated 24-well plates 48 h ahead of the transport experiment. On the day of experiment, cells were initially washed once with 37 °C pre-warmed HBSS+ (Hanks buffered salt solution supplemented with 10 mM HEPES) and subsequently incubated with the substrates dissolved in pre-warmed HBSS+ for exactly two minutes. Incubation was stopped by adding ice-cold HBSS+ followed by two washing steps. After this, cells were lysed with 80% acetonitrile containing 10 ng/mL milnacipran as internal standard for high-performance liquid chromatography coupled to tandem mass spectrometry (HPLC-MS/MS) analysis. For every experiment, two additional wells per cell line were lysed using RIPA buffer for protein quantification. Total protein was quantified using the bicinchoninic acid assay [42]. This was later used for normalization of the uptake data.
(§3) Intracellularly accumulated test substances were quantified by HPLC-MS/MS analysis using a Shimadzu Nexera HPLC system with a SIL-30AC autosampler, a CTO-20AC column oven, a LC-30AD pump, and a CBM-20A controller (Shimadzu, Kyoto, Japan). Stereoselective chromatography was carried out on a [sequence] CBH HPLC column (100 × 3 mm inner dimension with 5 μM particle size; Sigma-Aldrich, Darmstadt, Germany) with a corresponding 10 × 3 mm guard column. Reversed phased chromatography was carried out using an ammonium acetate (NH4Ac) buffered aqueous mobile phase with isopropyl alcohol (IPA) as organic solvent. […] The order of elution of the enantiomers was obtained from available reference literature [43] or by applying enantiopure reference compounds to the chiral HPLC. […] Given the structural similarity of the investigated substances and the fact that separation was performed on the same column with almost identical mobile phases, we assume that this order of elution for our compound set is always the (R)- before the (S)-enantiomer.
(§4) Detection was performed with an API 4000 tandem mass spectrometer (AB SCIEX, Darmstadt, Germany) operating in multiple-reaction-monitoring mode. Quantification was performed using the Analyst 1.6.2 software (AB SCIEX, Darmstadt, Germany) and quantified by comparison to standard curves with known concentrations.
(§5) All uptake data were normalized to protein content to account for variation in the number of seeded sells. Transporter-mediated net uptake was calculated by subtracting uptake into empty vector-transfected control cells from uptake into transporter-transfected cells. Kinetic parameters were then determined after non-linear regression following the Michaelis–Menten equation (v = vmax × [S]/(Km + [S])) using GraphPad Prism (Version 5.01 for Windows, GraphPad Software, La Jolla, CA, USA). Vmax refers to the maximum transport velocity and Km is defined as the substance concentration required to reach half of vmax. The intrinsic clearance Clint was calculated as the quotient of vmax over Km.
In series [2] the target is T1, OCT2 (Homo sapiens, UniProt O15244).
T1 sequence (O15244 1-555 S270A): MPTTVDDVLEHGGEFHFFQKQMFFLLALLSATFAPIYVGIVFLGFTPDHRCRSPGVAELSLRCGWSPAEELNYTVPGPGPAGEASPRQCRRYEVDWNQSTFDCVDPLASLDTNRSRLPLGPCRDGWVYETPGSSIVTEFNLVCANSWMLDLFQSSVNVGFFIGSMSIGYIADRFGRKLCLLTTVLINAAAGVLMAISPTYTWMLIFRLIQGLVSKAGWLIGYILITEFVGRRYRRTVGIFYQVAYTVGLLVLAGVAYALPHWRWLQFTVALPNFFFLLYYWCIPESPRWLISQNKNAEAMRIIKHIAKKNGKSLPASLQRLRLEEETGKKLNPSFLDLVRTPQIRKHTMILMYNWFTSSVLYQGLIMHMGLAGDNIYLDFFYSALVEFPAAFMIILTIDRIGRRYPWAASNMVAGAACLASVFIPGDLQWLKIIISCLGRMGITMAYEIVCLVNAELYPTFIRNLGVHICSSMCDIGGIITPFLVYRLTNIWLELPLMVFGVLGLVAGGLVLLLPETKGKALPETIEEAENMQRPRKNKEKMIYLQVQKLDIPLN
Briefly: Stereoselective uptake into OCT2 (wild-type)-overexpressing HEK293 cells. Particulars: for Vmax ± SEM / Km: HEK293 cells overexpressing human OCT2, racemic substrate, two minutes; for Vmax ± SEM: net uptake; for Clint ± SEM: OCT2, quotient of vmax over Km; for Km: read-out: Km ± SEM, net uptake minus empty vector control.
Protocol: as §1, §2
Intracellularly accumulated test substances were quantified by HPLC-MS/MS analysis using a Shimadzu Nexera HPLC system with a SIL-30AC autosampler, a CTO-20AC column oven, a LC-30AD pump, and a CBM-20A controller (Shimadzu, Kyoto, Japan). Stereoselective chromatography was carried out on a [sequence] CBH HPLC column (100 × 3 mm inner dimension with 5 μM particle size; Sigma-Aldrich, Darmstadt, Germany) with a corresponding 10 × 3 mm guard column. Reversed phased chromatography was carried out using an ammonium acetate (NH4Ac) buffered aqueous mobile phase with isopropyl alcohol (IPA) as organic solvent. […] The order of elution of the enantiomers was obtained from available reference literature [43] or by applying enantiopure reference compounds to the chiral HPLC. […] However, in every other case where the order of elution was available, the (R)-enantiomer eluted first. Given the structural similarity of the investigated substances and the fact that separation was performed on the same column with almost identical mobile phases, we assume that this order of elution for our compound set is always the (R)- before the (S)-enantiomer.
as §4, §5
HEK293 cells stably overexpressing wild-type or mutant OCT2 were incubated with 100 μM racemic substance for two minutes.

Series [3] concerns the target DAT (Homo sapiens, UniProt Q01959). Put plainly: Stereoselective uptake into DAT-overexpressing HEK293 cells.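 For all read-outs here: intracellular accumulation measured by chiral HPLC-MS/MS in stably transfected HEK293 cells, normalized to total protein.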 Particulars: for Clint ± SEM: DAT, quotient of vmax over Km.
Protocol: as §1, §2, §3, §4, §5
The target in series [4] is T2, OCT3 (Homo sapiens, UniProt O75751).
T2 sequence (O75751 1-556): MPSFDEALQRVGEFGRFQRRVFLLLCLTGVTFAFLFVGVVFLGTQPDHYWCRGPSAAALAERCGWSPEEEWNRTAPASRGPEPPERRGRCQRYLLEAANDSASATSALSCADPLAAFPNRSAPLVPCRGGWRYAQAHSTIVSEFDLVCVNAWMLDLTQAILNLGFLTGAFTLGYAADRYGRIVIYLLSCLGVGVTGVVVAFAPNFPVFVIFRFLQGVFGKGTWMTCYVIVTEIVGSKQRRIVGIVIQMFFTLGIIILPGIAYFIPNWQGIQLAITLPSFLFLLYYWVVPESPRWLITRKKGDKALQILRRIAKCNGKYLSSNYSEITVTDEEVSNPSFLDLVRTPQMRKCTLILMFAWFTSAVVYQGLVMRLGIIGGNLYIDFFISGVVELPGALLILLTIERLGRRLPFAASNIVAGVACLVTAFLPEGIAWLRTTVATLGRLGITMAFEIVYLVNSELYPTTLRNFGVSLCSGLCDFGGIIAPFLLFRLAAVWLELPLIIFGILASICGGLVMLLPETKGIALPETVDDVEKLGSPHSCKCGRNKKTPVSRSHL
Put plainly: Stereoselective uptake into OCT3-overexpressing HEK293 cells.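 For all read-outs here: intracellular accumulation in HEK293 cells measured by chiral HPLC-MS/MS after a 2 min substrate exposure at 37 °C, uptake normalized to total protein (bicinchoninic acid assay).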 To be noted: for Vmax ± SEM / Km: HEK293 cells overexpressing human OCT3, racemic substrate, two minutes; for Vmax ± SEM: net uptake; for Clint ± SEM: OCT3, quotient of vmax over Km; for Km: read-out: Km ± SEM, net uptake minus empty vector control.

The target in series [5] is T3, OCT1 (Homo sapiens, UniProt O15245).
T3 sequence (O15245 1-554): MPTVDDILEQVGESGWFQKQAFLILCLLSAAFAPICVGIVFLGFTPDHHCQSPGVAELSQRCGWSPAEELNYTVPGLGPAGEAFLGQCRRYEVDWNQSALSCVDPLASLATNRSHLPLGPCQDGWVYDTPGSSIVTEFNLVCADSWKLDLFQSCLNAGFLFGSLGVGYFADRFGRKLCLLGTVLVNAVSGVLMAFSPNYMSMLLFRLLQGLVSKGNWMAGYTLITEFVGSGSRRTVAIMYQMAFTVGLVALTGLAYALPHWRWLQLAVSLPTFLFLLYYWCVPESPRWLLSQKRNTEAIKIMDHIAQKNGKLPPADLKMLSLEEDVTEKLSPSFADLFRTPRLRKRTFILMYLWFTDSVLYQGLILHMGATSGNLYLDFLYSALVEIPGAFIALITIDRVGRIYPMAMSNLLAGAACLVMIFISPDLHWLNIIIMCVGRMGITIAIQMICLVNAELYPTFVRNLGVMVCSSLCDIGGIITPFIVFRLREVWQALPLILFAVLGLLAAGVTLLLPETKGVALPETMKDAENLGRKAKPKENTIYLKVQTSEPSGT
Briefly: Stereoselective uptake into OCT1-overexpressing HEK293 cells.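 For all read-outs here: enantiomers quantified inside cells by chiral HPLC-MS/MS, uptake normalized to total protein from bicinchoninic acid assay, substrates applied in HBSS+ buffer.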 To be noted: for Vmax ± SEM / Km: HEK293 cells overexpressing human OCT1, racemic substrate, two minutes; for Vmax ± SEM: net uptake; for Km: read-out: Km ± SEM, net uptake minus empty vector control.
Protocol: as §1, §2, §3, §4, §5

Chain of DAT (Q01959 whole entry): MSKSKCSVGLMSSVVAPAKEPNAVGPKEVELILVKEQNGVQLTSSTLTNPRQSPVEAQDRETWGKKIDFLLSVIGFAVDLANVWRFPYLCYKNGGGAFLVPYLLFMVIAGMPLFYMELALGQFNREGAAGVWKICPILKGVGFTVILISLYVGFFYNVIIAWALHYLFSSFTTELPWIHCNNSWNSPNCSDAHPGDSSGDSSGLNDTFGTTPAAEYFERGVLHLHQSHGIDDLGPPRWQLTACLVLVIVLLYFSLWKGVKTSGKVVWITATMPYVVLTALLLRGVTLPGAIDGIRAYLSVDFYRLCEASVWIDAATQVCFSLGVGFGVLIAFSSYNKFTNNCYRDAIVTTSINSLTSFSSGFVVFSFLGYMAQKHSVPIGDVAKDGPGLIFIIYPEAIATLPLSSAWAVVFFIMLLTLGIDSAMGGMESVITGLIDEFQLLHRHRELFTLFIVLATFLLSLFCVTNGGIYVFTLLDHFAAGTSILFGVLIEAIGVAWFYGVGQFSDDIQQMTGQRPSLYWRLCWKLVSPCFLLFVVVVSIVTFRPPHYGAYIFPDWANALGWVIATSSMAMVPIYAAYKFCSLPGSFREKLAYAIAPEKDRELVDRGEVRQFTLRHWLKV

For orientation: Km means the concentration of substrate that gives half-maximal velocity. In the case of `CNC[C@@H](O)c1ccc(O)c(O)c1` [(S)-Epinephrine], the “Vmax ± SEM” value in series [1] is 557 ± 22 pmol × mg Protein^−1 × min^−1; in series [2] it was 3993 ± 360 pmol × mg Protein^−1 × min^−1; in series [3] (HEK293 cells overexpressing human DAT, racemic substrate, two minutes, net uptake), 1226 ± 90 pmol × mg Protein^−1 × min^−1; in series [4], 5336 ± 502 pmol × mg Protein^−1 × min^−1; in series [5] it was 2514 ± 266 pmol × mg Protein^−1 × min^−1. Further, the Michaelis constant (Km) in series [1] worked out at 8.52 ± 1.91 µM; in series [2], 585 ± 167 µM; in series [4], 455 ± 149 µM; in series [5] it was 671 ± 230 µM. Also, the “Clint ± SEM” value in series [2] is 6.83 ± 2.57 mL × g Protein^−1 × min^−1; in series [3], 37.9 ± 14.8 mL × g Protein^−1 × min^−1; in series [4], 11.7 ± 4.9 mL × g Protein^−1 × min^−1.

On to (R)-Epinephrine, for which the “Vmax ± SEM” value in series [1] is recorded as 1027 ± 37 pmol × mg Protein^−1 × min^−1; in series [2], 7277 ± 483 pmol × mg Protein^−1 × min^−1; in series [4] it was 9742 ± 698 pmol × mg Protein^−1 × min^−1; in series [5], 2419 ± 189 pmol × mg Protein^−1 × min^−1. The “Clint ± SEM” value is reported as 91.7 ± 21.3 mL × g Protein^−1 × min^−1 in series [1] (NET, quotient of vmax over Km); 14.2 ± 4.0 mL × g Protein^−1 × min^−1 in series [2]; 64.7 ± 26.7 mL × g Protein^−1 × min^−1 in series [3]; 20.9 ± 6.7 mL × g Protein^−1 × min^−1 in series [4]; 4.06 ± 1.37 mL × g Protein^−1 × min^−1 in series [5] (OCT1, quotient of vmax over Km). In addition, the Km in series [1] amounted to 11.2 ± 2.2 µM; in series [2] it was 513 ± 110 µM; in series [3] (read-out: Km ± SEM, HEK293 cells overexpressing human DAT, racemic substrate, two minutes, net uptake minus empty vector control), 34 ± 11.6 µM; in series [4], 466 ± 116 µM; in series [5], 596 ± 155 µM.
